# Patent publication US20250332158A1, “COMPOSITION FOR PROMOTING MITOPHAGY ACTIVITY COMPRISING ISOQUINOLINE DERIVATIVE COMPOUND AS ACTIVE INGREDIENT AND USE THEREOF” (ALTMEDICAL CO., LTD., priority 2022, published 2025)
# Entries after “also recorded” stand apart in the source; their conditions may differ. Read-outs that look alike come from different tables or passages of the source.
# What was measured:
# [1] = test system: human normal lung cell line BEAS-2B; assay: mitophagy activity by mt-Keima (mitokeyma) fluorescent protein quantification, flow cytometry; assay type: cell-based; conditions: for mitophagy activity compared to the con group / concentration showing maximum mitophagy activity: BEAS-2B; for mitophagy activity compared to the con group: 20 µM, 24 hours, flow cytometer (FIG. 2A); for concentration showing maximum mitophagy activity: concentration series (FIG. 2B); for times higher mitophagy activity than CD1-012: from concentrations of maximum mitophagy activity
# Source text: By utilizing these characteristics, mt-Keima can be expressed specifically in mitochondria, and by performing integrated analysis of the fluorescence signals at 458 nm and 561 nm, the fluorescence signal can be analyzed when mitochondria in a neutral environment (pH=7.4-7.8) are converted to an acidic environment (pH=4.5) by lysosomes delivered from mitophagy, allowing for quantitative measurement of mitophagy activity.
# Specifically, a mitokeyma fluorescent protein quantification method, which allows for the quantitative measurement of mitophagy activity in living cells, was used. […] After treatment, the activity of mitophagy was measured using a flow cytometer. As a negative control, a control group (Control, con) without compound treatment was used, and as a positive control, CCCP (10 μM), which experimentally induces mitophagy activity, and CD1-012, a precursor of the compound of the present disclosure known to induce mitophagy activity, were used.
# [2] = test system: human normal lung cell line BEAS-2B; assay: colony forming assay (cytotoxicity); assay type: cell-based
# Description: A colony forming assay was performed to confirm the cytotoxicity of the novel isoquinoline derivatives of the present disclosure. Specifically, the isoquinoline derivatives were treated to the human normal lung cell line BEAS-2B for 24 hours, followed by culturing for 2 weeks to analyze the colony formed. As controls, a control group (con) that was not treated with anything and a positive control treated with CCCP, which induces mitophagy activity but also causes mitochondrial dysfunction and toxicity, were used.
compound,measurement,setting,value
Oc1cc2c(cc1O)-c1cc3ccc(O)c(O)c3c[n+]1CC2 [CD1-271],mitophagy activity compared to the con group,[1],promote the activity of mitophagy
COc1ccc2c(Cc3ccccc3)c3[n+](cc2c1OC)CCc1cc2c(cc1-3)OCO2 [CD1-404],mitophagy activity compared to the con group,[1],promote the activity of mitophagy
"N#CC(C#N)=NNc1cccc(Cl)c1 [CCCP, reference compound]",size and number of colonies (cytotoxicity),[2],decrease in both the size and number of colonies
COc1ccc2c(c1OC)CN1CCc3cc4c(cc3C1=C2)OCO4 [CD1-363],mitophagy activity compared to the con group,[1],promote the activity of mitophagy
Oc1cc2c(cc1O)C1=Cc3ccc(O)c(O)c3CN1CC2 [CD1-367],mitophagy activity compared to the con group,[1],promote the activity of mitophagy
same,size and number of colonies (cytotoxicity),"[2]; BEAS-2B, treated 24 hours, cultured 2 weeks (FIG. 4)","except for CD1-367, did not exhibit cytotoxicity"
CCc1c2[n+](cc3c(OC)c(OC)ccc13)CCc1cc3c(cc1-2)OCO3 [CD1-409],mitophagy activity compared to the con group,[1],best mitophagy activity promotion; also recorded: promote the activity of mitophagy
same,concentration showing maximum mitophagy activity,[1],10 µM
same,times higher mitophagy activity than CD1-012,[1],2 times
C=CCc1c2[n+](cc3c(OC)c(OC)ccc13)CCc1cc3c(cc1-2)OCO3 [CD1-386],mitophagy activity compared to the con group,[1],best mitophagy activity promotion; also recorded: promote the activity of mitophagy
same,concentration showing maximum mitophagy activity,[1],5 µM
same,times higher mitophagy activity than CD1-012,[1],4 times
